Where only a bound is given, the exact number is not on record here.

Data set [1] can be described thus: Inhibition of porcine brain CK1 delta/epsilon using RRKHAAIGpSAYSITA as substrate incubated for 30 mins in presence of [gamma-33 P] ATP by liquid scintillation counting analysis. Also noted: species or system Sus scrofa.
Data set [2] can be described thus: Cytotoxicity against human KB cells assessed as growth inhibition at 1 uM after 72 hrs by MTS assay. Type of data set: toxicity, cell-based. Conditions: for inhibition at 72 h, 1 µM: KB cells, read-out: GI; for growth inhibition (GI): kb, 72 h, 1 µM. (In general: Tetrazolium assays rely on reduction of a dye to a coloured formazan, in cell work by metabolically active cells.)

The target of data set [3] is Glycogen synthase kinase-3 (Sus scrofa, UniProt B2LUN4+I6LNT8). The data set can be described thus: Inhibition of porcine brain GSK3alpha/beta using GS-1 as substrate incubated for 30 mins in presence of [gamma-33 P] ATP by liquid scintillation counting analysis.
In data set [4] the target is Dual specificity protein kinase CLK1 (Homo sapiens, UniProt P49759). Put plainly: Inhibition of GST-tagged human recombinant CLK1 expressed in Escherichia coli using RS peptide as substrate incubated for 30 mins in presence of [gamma-33 P] ATP by liquid scintillation counting analysis.
Dual specificity protein kinase CLK1, sequence (P49759 whole entry): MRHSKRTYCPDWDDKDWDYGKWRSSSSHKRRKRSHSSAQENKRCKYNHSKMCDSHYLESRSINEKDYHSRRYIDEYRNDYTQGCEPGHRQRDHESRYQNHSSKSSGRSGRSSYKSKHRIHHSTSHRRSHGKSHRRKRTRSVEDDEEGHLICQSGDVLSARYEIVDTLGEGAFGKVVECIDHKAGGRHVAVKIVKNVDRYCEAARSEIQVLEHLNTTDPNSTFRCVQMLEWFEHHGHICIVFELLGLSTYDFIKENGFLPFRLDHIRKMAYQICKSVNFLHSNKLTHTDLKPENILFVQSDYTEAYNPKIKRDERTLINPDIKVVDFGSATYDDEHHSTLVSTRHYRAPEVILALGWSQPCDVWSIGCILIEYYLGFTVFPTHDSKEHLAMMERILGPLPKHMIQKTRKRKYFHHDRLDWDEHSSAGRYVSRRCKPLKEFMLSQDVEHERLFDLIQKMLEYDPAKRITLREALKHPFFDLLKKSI
Data set [5] has as its target Dual specificity tyrosine-phosphorylation-regulated kinase 1A (Homo sapiens, UniProt Q13627). Put plainly: Inhibition of GST-tagged human recombinant DYRK1A expressed in Escherichia coli using RS peptide as substrate incubated for 30 mins in presence of [gamma-33 P] ATP by liquid scintillation counting analysis.
Data set [6] concerns the target Cyclin-dependent kinase 5/CDK5 activator 1 (Homo sapiens, UniProt Q00535). In kind it is protein-complex assay.
The target of data set [7] is Dual specificity protein kinase CLK4 (Homo sapiens, UniProt Q9HAZ1). The data set can be described thus: Inhibition of GST-tagged human recombinant CLK4 expressed in Escherichia coli using RS peptide as substrate incubated for 30 mins in presence of [gamma-33 P] ATP by liquid scintillation counting analysis.
Dual specificity protein kinase CLK4, sequence (Q9HAZ1 whole entry): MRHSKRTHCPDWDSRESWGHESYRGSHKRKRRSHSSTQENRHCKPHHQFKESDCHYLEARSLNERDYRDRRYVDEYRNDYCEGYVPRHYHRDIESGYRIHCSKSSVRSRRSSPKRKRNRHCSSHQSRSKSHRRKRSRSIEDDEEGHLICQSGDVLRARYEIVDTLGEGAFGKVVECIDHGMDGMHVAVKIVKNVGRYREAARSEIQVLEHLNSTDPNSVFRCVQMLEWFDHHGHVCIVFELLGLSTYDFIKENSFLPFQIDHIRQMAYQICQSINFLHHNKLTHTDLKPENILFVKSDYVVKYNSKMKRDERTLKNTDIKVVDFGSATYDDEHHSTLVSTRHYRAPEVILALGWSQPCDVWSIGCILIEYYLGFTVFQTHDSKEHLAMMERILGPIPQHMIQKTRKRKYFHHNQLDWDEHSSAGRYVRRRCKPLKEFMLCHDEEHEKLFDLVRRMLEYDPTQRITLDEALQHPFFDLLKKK
Data set [8] addresses Dual specificity protein kinase CLK2 (Homo sapiens, UniProt P49760). Put plainly: Inhibition of GST-tagged human recombinant CLK2 expressed in Escherichia coli using RS peptide as substrate incubated for 30 mins in presence of [gamma-33 P] ATP by liquid scintillation counting analysis.
The target of data set [9] is Dual specificity tyrosine-phosphorylation-regulated kinase 1B (Homo sapiens, UniProt Q9Y463). Put plainly: Inhibition of GST-tagged human recombinant DYRK1B expressed in Escherichia coli using RS peptide as substrate incubated for 30 mins in presence of [gamma-33 P] ATP by liquid scintillation counting analysis.
Dual specificity tyrosine-phosphorylation-regulated kinase 1B, sequence (Q9Y463 whole entry): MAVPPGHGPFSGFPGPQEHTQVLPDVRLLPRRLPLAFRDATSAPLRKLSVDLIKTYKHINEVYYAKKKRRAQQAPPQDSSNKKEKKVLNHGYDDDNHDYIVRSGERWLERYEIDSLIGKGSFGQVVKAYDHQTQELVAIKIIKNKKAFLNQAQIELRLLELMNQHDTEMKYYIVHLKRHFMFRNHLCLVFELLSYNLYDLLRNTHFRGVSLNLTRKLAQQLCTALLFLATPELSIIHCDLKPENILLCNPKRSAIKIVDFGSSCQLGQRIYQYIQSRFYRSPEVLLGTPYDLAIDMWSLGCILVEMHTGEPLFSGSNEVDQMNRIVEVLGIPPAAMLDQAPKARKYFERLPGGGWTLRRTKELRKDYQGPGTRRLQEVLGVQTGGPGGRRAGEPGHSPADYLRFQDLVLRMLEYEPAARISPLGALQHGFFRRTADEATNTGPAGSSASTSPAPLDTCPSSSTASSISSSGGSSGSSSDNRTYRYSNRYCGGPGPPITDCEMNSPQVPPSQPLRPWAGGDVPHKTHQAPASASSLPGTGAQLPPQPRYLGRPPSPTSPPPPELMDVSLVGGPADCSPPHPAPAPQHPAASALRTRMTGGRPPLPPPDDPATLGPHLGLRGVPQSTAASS
Data set [10] deals with Dual specificity protein kinase CLK3 (Homo sapiens, UniProt P49761). Put plainly: Inhibition of GST-tagged human recombinant CLK3 expressed in Escherichia coli using RS peptide as substrate incubated for 30 mins in presence of [gamma-33 P] ATP by liquid scintillation counting analysis.
Dual specificity protein kinase CLK3, sequence (P49761 whole entry): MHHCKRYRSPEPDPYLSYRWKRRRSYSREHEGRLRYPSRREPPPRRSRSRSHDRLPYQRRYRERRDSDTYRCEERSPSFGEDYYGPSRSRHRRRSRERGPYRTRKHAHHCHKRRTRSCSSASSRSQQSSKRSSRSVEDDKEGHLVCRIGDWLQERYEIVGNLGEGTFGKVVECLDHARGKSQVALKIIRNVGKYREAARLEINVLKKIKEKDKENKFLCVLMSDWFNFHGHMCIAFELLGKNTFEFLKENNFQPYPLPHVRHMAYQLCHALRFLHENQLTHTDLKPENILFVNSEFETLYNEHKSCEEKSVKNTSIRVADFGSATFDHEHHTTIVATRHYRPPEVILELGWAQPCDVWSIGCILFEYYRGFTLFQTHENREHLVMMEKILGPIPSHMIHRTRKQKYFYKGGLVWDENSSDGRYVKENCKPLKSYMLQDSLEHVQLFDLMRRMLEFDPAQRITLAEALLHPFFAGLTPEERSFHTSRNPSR

Dual specificity protein kinase CLK2, sequence (P49760 whole entry): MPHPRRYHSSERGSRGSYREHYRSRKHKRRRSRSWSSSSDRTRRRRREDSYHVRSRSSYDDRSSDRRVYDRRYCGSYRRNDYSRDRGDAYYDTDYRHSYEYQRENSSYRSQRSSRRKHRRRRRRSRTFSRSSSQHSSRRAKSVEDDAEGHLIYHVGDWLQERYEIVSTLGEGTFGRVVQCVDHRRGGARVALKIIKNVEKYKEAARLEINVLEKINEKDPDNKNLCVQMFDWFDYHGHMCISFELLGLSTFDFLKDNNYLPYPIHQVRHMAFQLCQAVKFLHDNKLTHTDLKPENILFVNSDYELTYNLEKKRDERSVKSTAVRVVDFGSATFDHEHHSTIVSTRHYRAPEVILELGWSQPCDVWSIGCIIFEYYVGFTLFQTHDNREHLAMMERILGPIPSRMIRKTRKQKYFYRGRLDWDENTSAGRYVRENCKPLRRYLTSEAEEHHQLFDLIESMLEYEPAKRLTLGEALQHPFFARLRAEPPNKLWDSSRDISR
Cyclin-dependent kinase 5/CDK5 activator 1, sequence (Q00535 whole entry): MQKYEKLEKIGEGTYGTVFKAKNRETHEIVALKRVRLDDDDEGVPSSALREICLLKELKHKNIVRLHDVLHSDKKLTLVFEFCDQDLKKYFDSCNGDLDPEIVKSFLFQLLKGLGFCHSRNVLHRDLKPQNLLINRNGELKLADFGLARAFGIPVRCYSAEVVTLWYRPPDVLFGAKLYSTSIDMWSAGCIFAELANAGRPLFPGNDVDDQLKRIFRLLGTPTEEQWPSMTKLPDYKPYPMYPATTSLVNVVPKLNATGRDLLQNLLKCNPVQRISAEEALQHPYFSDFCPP
Cyclin-dependent kinase 5/CDK5 activator 1, sequence (Q15078 whole entry, further chain): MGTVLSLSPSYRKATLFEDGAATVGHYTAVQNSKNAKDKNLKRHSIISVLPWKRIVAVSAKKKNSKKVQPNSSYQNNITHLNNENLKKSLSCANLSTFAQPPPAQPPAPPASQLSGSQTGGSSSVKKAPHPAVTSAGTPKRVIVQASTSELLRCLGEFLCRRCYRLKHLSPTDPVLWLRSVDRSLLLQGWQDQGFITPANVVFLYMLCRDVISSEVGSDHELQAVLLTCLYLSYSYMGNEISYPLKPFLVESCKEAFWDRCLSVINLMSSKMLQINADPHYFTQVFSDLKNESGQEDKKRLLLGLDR

Consider `COc1ccc2c(c1)[nH]c1c3ccncc3cc(CN(C)C)c21`, for which the IC50 (commonly the midpoint of a concentration-inhibition curve) in data set [1] was over 10 µM; in data set [3], over 10 µM; in data set [4], 1.4 µM; in data set [5], 0.67 µM; in data set [6] it was 5.4 µM. In data set [2], the inhibition at 72 h, 1 µM is 37%.

Regarding `N#Cc1cc2ccncc2c2[nH]c3ccccc3c12`, the IC50 in data set [7] was 0.18 µM; in data set [1] it was over 10 µM; in [8], 1.1 µM; in data set [9], 0.26 µM; in data set [3] it was 2.4 µM; in [4], 0.17 µM. Besides, the IC50 was 1.8 µM in data set [10], 0.37 µM in data set [5] and 6 µM in data set [6]. The inhibition at 72 h, 1 µM in [2] came to 3%.

With `N#C/C(=C\c1cccnc1)c1c[nH]c2ccc(Cl)cc12`, the IC50 in [1] was over 10 µM; in data set [3], over 10 µM; in data set [4] it was 2 µM; in [5], 3.3 µM; in data set [6], over 10 µM.

With `N#C/C(=C\c1cccnc1)c1c[nH]c2ccccc12`, the IC50 is over 10 µM in [3], 5.5 µM in [5] and over 10 µM in data set [6].

`N#Cc1cc2cnccc2c2[nH]c3ccccc3c12`: the IC50 in [3] amounted to 1 µM; in data set [5], 0.05 µM; in data set [6] it was 0.8 µM.

On to `COc1cccc2c1[nH]c1c3ccncc3cc(C#N)c21`, for which the IC50 in data set [7] is 0.04 µM; in [1] it was over 10 µM; in data set [8] it was 0.044 µM; in data set [9], 0.028 µM; in [3], 2 µM; in data set [4], 0.041 µM. Also, the 50% inhibitory concentration (IC50) in data set [10] worked out at 0.18 µM; in data set [5] it was 0.027 µM; in [6] it was 0.46 µM. Besides, in data set [2], the inhibition at 72 h, 1 µM amounted to 9%.

Regarding `COc1ccc2cc(-c3ccncc3)[nH]c2n1`, the IC50 in data set [1] is over 10 µM; in data set [3] it was over 10 µM; in data set [4], 2.9 µM; in data set [5], over 10 µM; in [6], over 10 µM.

For `N#Cc1cc2ccccc2c2[nH]c3ccccc3c12`, the IC50 in data set [1] was over 10 µM; in data set [3] it was over 10 µM; in data set [4], 1.4 µM; in data set [5], 2.3 µM; in data set [6], over 10 µM.

Consider `N#Cc1cc2ccccn2c2nc3ccccc3c1-2`, for which the IC50 in data set [1], in [3], in data set [4], in [5] and in [6] was over 10 µM each time.

Take `COc1ccc2[nH]cc(/C(C#N)=C/c3cccnc3)c2c1`: the IC50 in data set [3] is over 10 µM; in [5] it was 6.3 µM; in data set [6], over 10 µM.

Consider `Nc1nc2ccccc2c2cc3cnccc3cc12`, for which the IC50 was over 10 µM in [1]; over 10 µM in [3]; 2.1 µM in data set [4]; over 10 µM in [5]; over 10 µM in data set [6].

For the molecule `N#C/C(=C\c1ccccn1)c1c[nH]c2ccccc12`, the IC50 in [3], in data set [5] and in data set [6] was over 10 µM in each case.

As to `N#C/C(=C\c1cccnc1)c1c[nH]c2ccc(F)cc12`, the IC50 was over 10 µM in [1]; over 10 µM in [3]; 1.7 µM in data set [4]; 1.8 µM in data set [5]; over 10 µM in [6].

Turning to `COc1cccc2c1[nH]c1c3ccncc3cc(C(N)=O)c21`, the IC50 in data set [7] is 0.11 µM; in data set [1], over 10 µM; in [8], 3.5 µM; in [9], 0.46 µM; in [3], 8.8 µM; in data set [4] it was 0.57 µM. Moreover, the IC50 was 6.1 µM in [10], 0.6 µM in [5] and 9 µM in [6]. In addition, the “growth inhibition (GI)” value in data set [2] was “Non-Toxic”.

`COc1cccc2c(/C(C#N)=C/c3cccnc3)c[nH]c12`: the IC50 in data set [1] is over 10 µM; in data set [3], over 10 µM; in data set [4], 1.5 µM; in data set [5] it was 1.2 µM; in data set [6], over 10 µM.

As to `COc1ccc2c(-c3ccncc3)c[nH]c2n1`, the IC50 is 0.11 µM in data set [7]; over 10 µM in data set [1]; 3.5 µM in data set [8]; 0.22 µM in data set [9]; over 10 µM in data set [3]; 0.43 µM in data set [4]. Besides, the IC50 in [10] stood at 6.1 µM; in data set [5], 5.8 µM; in [6], 7 µM. Also, the “growth inhibition (GI)” value in data set [2] is “Non-Toxic”.

Turning to `N#C/C(=C\c1ccccc1)c1c[nH]c2ccccc12`, the IC50 in [3], in [5] and in [6] was over 10 µM throughout.

As for `N#Cc1cc2cnccc2c2[nH]c3ccc(Cl)cc3c12`, the IC50 was over 10 µM in data set [1]; over 10 µM in data set [3]; over 10 µM in [4]; 4 µM in [5]; over 10 µM in data set [6].

As to `COc1cccc2[nH]cc(/C(C#N)=C/c3cccnc3)c12`, the IC50 in data set [1] is over 10 µM; in data set [3] it was over 10 µM; in data set [4], 3 µM; in [5], 6 µM; in data set [6] it was over 10 µM.

Turning to `COc1ccc2c(c1)[nH]c1c3ccncc3cc(C(N)=O)c21`, the IC50 was over 10 µM in [1]; 9 µM in [3]; 1.6 µM in data set [4]; 2 µM in [5]; 4.5 µM in data set [6].

Consider `N#Cc1cc2ncccc2c2[nH]c3ccccc3c12`, for which the IC50 was over 10 µM in data set [1]; over 10 µM in [3]; over 10 µM in data set [4]; 10 µM in data set [5]; over 10 µM in data set [6].

For the molecule `COc1ccc2c(/C(C#N)=C/c3cccnc3)c[nH]c2c1`, the IC50 in [1] is over 10 µM; in data set [3] it was over 10 µM; in data set [4], 1.3 µM; in [5] it was 1.6 µM; in data set [6], over 10 µM.

With `COc1ccc2[nH]cc(/C(C#N)=C(\N)c3cccnc3)c2c1`, the IC50 in [1], in data set [3], in data set [4], in [5] and in data set [6] was over 10 µM throughout.

As to `COc1ccc2c(c1)[nH]c1c3c(OC)cncc3cc(C(N)=O)c21`, the IC50 is over 10 µM in data set [1]; over 10 µM in [3]; 1.6 µM in data set [4]; 3.3 µM in data set [5]; 1.6 µM in data set [6].

For `N#C/C(=C\c1ccncc1)c1c[nH]c2ccccc12`, the IC50 in data set [3], in data set [5] and in data set [6] was over 10 µM throughout.

Turning to `N#C/C(=C/c1cccnc1)c1c[nH]c2ccccc12`, the IC50 in data set [3], in data set [4], in [5] and in data set [6] was over 10 µM each time.

Consider `COc1ccc2[nH]cc(/C(C#N)=C/c3cnccc3C)c2c1`, for which the IC50 in data set [1] was over 10 µM; in data set [3], over 10 µM; in data set [4] it was 4 µM; in data set [5], 5.5 µM; in data set [6] it was over 10 µM.

`COc1ccc2[nH]cc3c2c1C(C)NC(c1cccnc1)=C3C#N` (centres undefined): the IC50 in data set [1] was over 10 µM; in data set [3], over 10 µM; in data set [4], over 10 µM; in data set [5] it was 5 µM; in [6], 6.4 µM.

For `COc1ccc2c(CC#N)c(-c3ccncc3)[nH]c2n1`, the IC50 is over 10 µM in [1]; over 10 µM in data set [3]; 1.1 µM in data set [4]; 7.3 µM in [5]; over 10 µM in data set [6].

Take `COc1ccc2[nH]c3c4c(OC)cncc4cc(C#N)c3c2c1`: the IC50 in [1] was over 10 µM; in data set [3] it was 4 µM; in data set [4], 0.056 µM; in data set [5], 0.6 µM; in data set [6], 0.93 µM. Further, in [2], the “growth inhibition (GI)” value was “Non-Toxic”.

Turning to `COc1ccc2c(c1)[nH]c1c(C)nccc12` [HARMINE], the IC50 is 1.5 µM in data set [1] and over 10 µM in data set [3].

Consider `COc1cncc(/C=C(\C#N)c2c[nH]c3ccc(OC)cc23)c1`, for which the IC50 was over 10 µM in data set [1]; over 10 µM in [3]; 2.3 µM in data set [4]; over 10 µM in data set [5]; over 10 µM in data set [6].

Take `N#Cc1cc2cccnc2c2[nH]c3ccccc3c12`: the IC50 in [3], in [5] and in data set [6] was over 10 µM each time.

The values are drawn from ChEMBL document CHEMBL3875174, “Further investigation of Paprotrain: Towards the conception of selective and multi-targeted CNS kinase inhibitors” (Eur J Med Chem, 2016).
